Assay results: BigSolDB 2.1

Cc1cc(C(=O)O)ccc1[N+](=O)[O-]
Conditions | solubility (mole fraction)
in isobutanol, 306.95 K | 0.009
in isobutanol, 309.55 K | 0.0105
in isobutanol, 315.75 K | 0.0132
in isobutanol, 319.55 K | 0.0158
in isobutanol, 323.85 K | 0.0192
in isobutanol, 328.95 K | 0.0235
in isobutanol, 333.95 K | 0.0283
in isobutanol, 337.95 K | 0.0332
in isobutanol, 342.15 K | 0.0391
in isobutanol, 346.65 K | 0.0457
in n-butanol, 305.15 K | 0.013
in n-butanol, 309.55 K | 0.0153
in n-butanol, 314.95 K | 0.0177
in n-butanol, 318.35 K | 0.0201
in n-butanol, 321.35 K | 0.0228
in n-butanol, 324.35 K | 0.026
in n-butanol, 327.95 K | 0.03
in n-butanol, 332.05 K | 0.0349
in n-butanol, 336.75 K | 0.0405
in n-butanol, 341.25 K | 0.047
in n-butanol, 345.35 K | 0.0546
in sec-butanol, 304.55 K | 0.0142
in sec-butanol, 307.65 K | 0.0166
in sec-butanol, 311.55 K | 0.0199
in sec-butanol, 316.25 K | 0.0243
in sec-butanol, 321.35 K | 0.0297
in sec-butanol, 326.15 K | 0.0359
in sec-butanol, 331.15 K | 0.0428
in sec-butanol, 335.25 K | 0.05
in sec-butanol, 339.25 K | 0.0578
in sec-butanol, 343.55 K | 0.0667
in tert-butanol, 304.35 K | 0.0193
in tert-butanol, 306.95 K | 0.0229
in tert-butanol, 310.15 K | 0.0271
in tert-butanol, 314.95 K | 0.0321
in tert-butanol, 317.95 K | 0.0372
in tert-butanol, 321.65 K | 0.043
in tert-butanol, 325.85 K | 0.0493
in tert-butanol, 329.45 K | 0.0556
in tert-butanol, 333.05 K | 0.0627
in tert-butanol, 336.35 K | 0.0703
in tert-butanol, 339.65 K | 0.0791
in tert-butanol, 343.65 K | 0.0878
in tert-butanol, 345.25 K | 0.0915

Cc1cccc(C(=O)O)c1[N+](=O)[O-]
Conditions | solubility (mole fraction)
in isobutanol, 297.15 K | 0.0102
in isobutanol, 300.65 K | 0.0119
in isobutanol, 303.45 K | 0.0138
in isobutanol, 306.55 K | 0.0161
in isobutanol, 311.15 K | 0.0193
in isobutanol, 315.05 K | 0.0227
in isobutanol, 317.85 K | 0.0268
in isobutanol, 322.15 K | 0.0314
in isobutanol, 326.25 K | 0.0367
in isobutanol, 330.35 K | 0.0425
in isobutanol, 333.45 K | 0.0486
in isobutanol, 337.15 K | 0.0558
in n-butanol, 300.75 K | 0.0177
in n-butanol, 304.15 K | 0.0199
in n-butanol, 307.55 K | 0.0228
in n-butanol, 312.55 K | 0.0264
in n-butanol, 316.15 K | 0.0304
in n-butanol, 319.85 K | 0.0351
in n-butanol, 324.15 K | 0.0406
in n-butanol, 328.25 K | 0.0466
in n-butanol, 332.25 K | 0.0529
in n-butanol, 335.95 K | 0.0597
in n-butanol, 339.95 K | 0.0676
in n-butanol, 343.45 K | 0.0742
in sec-butanol, 305.05 K | 0.024
in sec-butanol, 307.65 K | 0.0272
in sec-butanol, 311.15 K | 0.0314
in sec-butanol, 315.25 K | 0.0373
in sec-butanol, 319.85 K | 0.0447
in sec-butanol, 323.95 K | 0.053
in sec-butanol, 328.85 K | 0.0622
in sec-butanol, 333.35 K | 0.0718
in sec-butanol, 337.65 K | 0.0817
in sec-butanol, 342.25 K | 0.0921
in sec-butanol, 346.25 K | 0.102
in tert-butanol, 301.35 K | 0.0307
in tert-butanol, 304.05 K | 0.0328
in tert-butanol, 306.25 K | 0.0366
in tert-butanol, 310.05 K | 0.0442
in tert-butanol, 314.75 K | 0.0531
in tert-butanol, 318.95 K | 0.0619
in tert-butanol, 323.05 K | 0.0711
in tert-butanol, 327.35 K | 0.0802
in tert-butanol, 331.45 K | 0.0898
in tert-butanol, 335.95 K | 0.0999
in tert-butanol, 340.65 K | 0.111

Cc1ccc([N+](=O)[O-])c(C(=O)O)c1
Conditions | solubility (mole fraction)
in isobutanol, 293.75 K | 0.113
in isobutanol, 299.15 K | 0.133
in isobutanol, 305.75 K | 0.153
in isobutanol, 311.15 K | 0.173
in isobutanol, 317.55 K | 0.193
in isobutanol, 322.95 K | 0.209
in isobutanol, 328.15 K | 0.227
in isobutanol, 333.65 K | 0.243
in n-butanol, 290.65 K | 0.167
in n-butanol, 292.15 K | 0.172
in n-butanol, 294.15 K | 0.183
in n-butanol, 297.75 K | 0.199
in n-butanol, 302.85 K | 0.218
in n-butanol, 307.15 K | 0.237
in n-butanol, 311.65 K | 0.256
in n-butanol, 315.15 K | 0.275
in n-butanol, 319.75 K | 0.295
in n-butanol, 323.85 K | 0.316
in n-butanol, 328.15 K | 0.338
in sec-butanol, 290.15 K | 0.185
in sec-butanol, 292.45 K | 0.199
in sec-butanol, 297.65 K | 0.225
in sec-butanol, 303.15 K | 0.253
in sec-butanol, 309.95 K | 0.28
in sec-butanol, 315.35 K | 0.305
in sec-butanol, 321.15 K | 0.329
in sec-butanol, 326.15 K | 0.352
in sec-butanol, 330.55 K | 0.372
in tert-butanol, 301.55 K | 0.255
in tert-butanol, 305.15 K | 0.274
in tert-butanol, 309.85 K | 0.295
in tert-butanol, 314.45 K | 0.318
in tert-butanol, 318.15 K | 0.341
in tert-butanol, 322.75 K | 0.366
in tert-butanol, 327.35 K | 0.392
in tert-butanol, 332.05 K | 0.418
in tert-butanol, 336.55 K | 0.445
in tert-butanol, 339.55 K | 0.473
